Data as given in article PMC6273649, “Synthesis of Novel Quaternary Ammonium Salts and Their in Vitro Antileishmanial Activity and U-937 Cell Cytotoxicity” (Molecules, 2016).
≈ marks a conversion by molar mass, not a printed value. Where two headings read alike, the source gives them in different places.

Tests used:
in vitro = assay: in vitro
Protocol: (§1) U-937 promonocytes (CRL1593.2™) were obtained from the American Type Culture Collection (ATCC, Manassas, VA, USA), cultured in complete medium containing RPMI 1640 medium (Sigma) supplemented with 10% fetal bovine serum (FBS) (Gibco, Life Technologies, Grand Island, NY, USA) and 1% antibiotics (100 U/mL penicillin and 0.1 mg/mL streptomycin) (Sigma). Cells were maintained in standard conditions at 37 °C, 5% CO2 with change of medium every three days until use.
(§2) The cytotoxicity of compounds was assessed based on the viability of U-937 cells and evaluated by the MTT (3-(4,5-dimethylthiazol-2-yl)-2,5-diphenyltetrazolium bromide) method as described by others. Briefly, into each well of a 96-well cell-culture dishes 100,000 cells/100 μL were dispensed in RPMI-1640 supplemented with 10% FBS and 100 μL of the corresponding concentrations of the corresponding product. Six two fold serial dilutions were tested starting at 200 µg/mL (200, 100, 50, 25, 12.5 and 6.25 μg/mL). Cells were incubated at 37 °C with 5% CO2 for 72 h in the presence of compounds, and then the effect was determined by measuring the activity of the mitochondrial dehydrogenase by adding 10 µL/well of MTT solution (0.5 mg/mL) and incubating at 37 °C for 3 h. The reaction was stopped by adding 100 μL /well of 50% isopropanol solution with 10% sodium dodecyl sulfate for 30 min. Cell growth was determined based on the quantity of formazan produced, which was measured at 570 nm in a plate reader spectrophotometer (Bio-Rad, Hercules, CA, USA). Cells cultured in the absence of products were used as cell growth controls (negative control), while cells cultured in presence of amphotericin B (AmB, Sigma) and meglumine antimoniate (MA, Sanofi-Aventis, Bogotá, Colombia) were used as cytotoxicity controls (positive control). Each concentration was tested in triplicate in at least two independent experiments.
(§3) Cytotoxicity was determined according to the percentages of cell growth (viability) obtained for each tested compound or medium alone. Percentages of viability were calculated first using Equation (1): % Viability = (O.D. of treated cells)/(O.D. of untreated cells) × 100(1) where the O.D. of the untreated cells corresponds to 100% viability. Then, the percentage of cell growth inhibition was calculated using Equation (2): % Cell growth inhibition = 100 − % Viability(2)
(§4) The degree of cytotoxicity was established as convenient according to the LC50 values, using our own scale: high cytotoxicity: LC50 < 100 μg/mL, moderate cytotoxicity: 100 μg/mL < LC50 < 200 μg/mL; and potential non-cytotoxicity: LC50 > 200 μg/mL.

[1] = system: intracellular amastigotes of L. (V) panamensis-pIR-eGFP; assay: organism not typed; format: cell-based; conditions: for EC50: U-937, 72 h, read-out: Intracellular Amastigotes EC50; for degree of leishmanicidal activity, intracellular amastigotes: authors' own scale by EC50
Protocol: (§5) Virulent L. (V) panamensis MHOM/CO/87/UA140 strain transfected with green fluorescent protein gene called L. (V) panamensis-pIR-eGFP was maintained by successive passaging in golden hamsters (Mesocricetus auratus). Briefly, amastigotes were aspirated from cutaneous lesions of hamsters experimentally infected with promastigotes of L. (V) panamensis-pIR-eGFP. Samples were cultured in biphasic culture with Novy-MacNeal-Nicholle (NNN) medium as solid phase and PBS plus glucose, pH 6.9 as liquid phase and incubated at 26 °C to obtain promastigotes. Medium was changed every week until 2 months.
Intracellular amastigotes were obtained after infection of U-937 cells with promastigotes. Briefly, U-937 cells were dispensed in 24-well plates at a concentration of 300,000 cells/well and were treated with 1 µM of phorbol myristate acetate (PMA) (Sigma) for 48 h at 37 °C. Then, cells were infected with promastigotes in stationary growth phase (day 5) at a ratio of 1:15 cell/parasite and incubated for 3 h at 34 °C in 5% CO2. […] After 24 h of infection, cells were ready to be used in antileishmanial testing assay as described below.
The effect of compounds against intracellular amastigotes of L. (V) panamensis-pIR-eGFP was evaluated by flow cytometry using the methodology described by others. […] Infected and treated cells were maintained at 34 °C and 5% CO2 for 72 h. After 72 h, cells were washed twice with 1 mL of cold PBS and cells were removed from the bottom plate with a trypsin/EDTA ([…]) solution. Recovered cells were centrifuged at 1100 rpm for 10 min at 4 °C, the supernatant was discarded and cells were washed with 1 mL of cold PBS and centrifuged at 1100 rpm for 10 min at 4 °C. Supernatant was discarded and cells were suspended in 500 μL of PBS and analyzed by flow cytometry (FC 500MPL, Cytomics, Brea, CA, USA) using histogram analyses (Figure 2). […] Each concentration of compounds was tested in triplicate in two independent experiments.
The antileishmanial activity in intracellular amastigotes was determined according to the reduction of infected cells and parasite load (viable parasites inside infected cells) obtained for each experimental condition. The percentage of infected cell inhibition and parasite load for each concentration of each compound were calculated first using Equation (3): % infection = (% infected and treated cells ÷ % infected and untreated cells) × 100(3)
And then, the percentage of infection inhibition was calculated using Equation (4): % Inhibition = 100 − % infection(4)

[2] = system: axenic amastigotes of L. (V) panamensis; assay: organism not typed; format: cell-based; conditions: for EC50 / Axenic Amastigotes EC50: 72 h, mean ± standard deviation; for degree of leishmanicidal activity, axenic amastigotes: authors' own scale by EC50
Protocol: as §5
The axenic amastigotes were obtained from promastigotes cutured in Schneider’s medium, as described elsewhere. Briefly, promastigotes of L. (V) panamensis-pIR-eGFP at 5 × 10^6 parasites/mL were cultured in Schneider medium (Sigma), pH 5.4 supplemented with 20% FBS and 1% antibiotics and incubation at 26 °C. Every three days, medium was changed and temperature was increased one degree each time until it reached 32 °C at which the transformation of the promastigotes into axenic amastigotes is achieved. After three days of growing as axenic amastigotes, parasites were ready to be used in the antileishmanial testing assay as described below.
The ability of compounds to kill axenic amastigotes of L. (V) panamensis was determined based on the viability of the parasites after exposure to each compound evaluated by the MTT method following the methodology described by others. Axenic amastigotes obtained as described above were harvested, washed, and adjusted at 2 × 10^6 parasites/mL in fresh Schneider’s medium with 20% FBS. Into each well of a 96-well plate 100 µL of parasite suspension (2 × 10^5 axenic amastigotes) were dispensed and then 100 µL of each concentration of the corresponding compound were added. […] Plates were incubated at 32 °C. After 72 h of incubation, the effect of each compound was determined by adding 10 µL/well of MTT and incubating at 32 °C for 3 h. The reaction was stopped as described above and the quantity of formazan produced was measured in a plate reader spectrophotometer (Bio-Rad) set at 570 nm. Axenic amastigotes cultivated in the absence of any compound but maintained under the same conditions were used as controls for growth and viability (negative control) while parasites cultivated in the presence of MA were used as controls for leishmanicidal activity (positive control). Assays were performed at least twice with three replicates per each concentration tested.
In turn, activity of compounds with axenic amastigotes was determined according to the reduction of parasite growth percentages obtained for each experimental condition. The percentage of parasite growth was calculated first using Equation (5): % parasite growth = (O.D. treated ax. amastigotes)/(O.D. of untreated ax. amastigotes) × 100(5) where the O.D. of the untreated axenic amastigotes corresponds to 100% parasite growth. Then, the percentage of parasite growth inhibition was calculated using Equation (6): % parasite growth inhibition = 100 − % parasite growth(6)

U-937 cells = assay: in vitro; conditions: U-937 cells
Protocol: as §1, §2, §3, §4

[3] = L. (V) panamensis in U-937 cells, flow cytometry, 72 h, mean ± standard deviation
[4] = L. (V) panamensis axenic amastigotes, MTT, read-out: Axenic Amastigotes EC50
[5] = L. (V) panamensis axenic amastigotes, MTT

Compound | CC50 at 72 h (in vitro) [µg/mL] | EC50 [1, 3] [µg/mL] | EC50 [2, 4] [µg/mL] | also measured
C[C@@H]1[C@H](O)[C@@H](C)/C=C/C=C/C=C/C=C/C=C/C=C/C=C/[C@H](O[C@@H]2O[C@H](C)[C@@H](O)[C@H](N)[C@@H]2O)C[C@@H]2O[C@](O)(C[C@@H](O)C[C@@H](O)[C@H](O)CC[C@@H](O)C[C@@H](O)CC(=O)O[C@H]1C)C[C@H](O)[C@H]2C(=O)O [AmB, Amphotericin B, reference compound] |  |  |  | CC50 at 72 h (in vitro; human): 28.2 ± 0.5 µg/mL (≈ 30.5 µM)
C[N+](C)(CCl)CCC=C(c1ccccc1)c1ccccc1.[I-] [Compound 1a, N-Chloromethyl-N,N-dimethyl-N-(4,4-diphenylbut-3-en-1-yl)ammonium iodide] | 44.4 ± 4.9 | 38.4 ± 0.2 | 35 ± 5.7 | 
C[N+](C)(CCl)CCCC=C(c1ccccc1)c1ccccc1.[I-] [Compound 1b, N-Chloromethyl-N,N-dimethyl-N-(5,5-diphenylpent-4-en-1-yl)ammonium iodide] | 21 ± 2 | 46.8 ± 1.2 | 56.3 ± 3.7 | 
C[N+](C)(CCl)CCCCC=C(c1ccccc1)c1ccccc1.[I-] [Compound 1c, N-Chloromethyl-N,N-dimethyl-N-(6,6-diphenylhex-5-en-1-yl)ammonium iodide] | 21 ± 0.5 | 49.4 ± 3.1 | 40.5 ± 3.3 | 
C[N+](C)(CI)CCC=C(c1ccccc1)c1ccccc1.[I-] [Compound 2a, N-Iodomethyl-N,N-dimethyl-N-(4,4-diphenylbut-3-en-1-yl)ammonium iodide] | 46 ± 5.4 | 27.8 ± 3.9 | 36.2 ± 0.1 | 
C[N+](C)(CI)CCCC=C(c1ccccc1)c1ccccc1.[I-] [Compound 2b, N-Iodomethyl-N,N-dimethyl-N-(5,5-diphenyl-4-penten-1-yl)ammonium iodide] | 10.1 ± 0.2 | 24 ± 0.7 | 19.7 ± 1.5 | 
C[N+](C)(CI)CCCCC=C(c1ccccc1)c1ccccc1.[I-] [Compound 2c, N-Iodomethyl-N,N-dimethyl-N-(6,6-diphenylhex-5-en-1-yl)ammonium iodide] | 9.5 ± 0.3 | 17.6 ± 1 | 14 ± 0.9 | 
C[N+](C)(C)CCC=C(c1ccccc1)c1ccccc1.[I-] [Compound 3a, N,N,N-Trimethyl-N-(4,4-diphenylbut-3-en-1-yl)ammonium iodide] | 39.2 ± 4.8 | 30 ± 1.4 | 25 ± 0.7 | degree of leishmanicidal activity, intracellular amastigotes [1]: moderate (moderate activity: 25 μg/mL < EC50 < 50 μg/mL); degree of leishmanicidal activity, axenic amastigotes [2]: high (high leishmanicidal activity: EC50 < 25 μg/mL)
C[N+](C)(C)CCCC=C(c1ccccc1)c1ccccc1.[I-] [Compound 3b, N,N,N-Trimethyl-N-(5,5-diphenylpent-4-en-1-yl)ammonium iodide] | 27.2 ± 0.7 | 24.7 ± 1.9 | 25 ± 0.5 | 
C[N+](C)(C)CCCCC=C(c1ccccc1)c1ccccc1.[I-] [Compound 3c, N,N,N-Trimethyl-N-(6,6-diphenylhex-5-en-1-yl)ammonium iodide] | 12.5 ± 0.8 | 41.6 ± 2.8 | 34.1 ± 5.1 | 
C[N+](C)(CCl)CCO [Compound 4a, N-Choromethyl-N,N-dimethyl-N-(2-hydroxyet-1-yl)ammonium iodide] | 17.9 ± 0.02 | 29.6 ± 2.8 | 24.3 ± 1.3 | degree of leishmanicidal activity, intracellular amastigotes [1]: moderate (moderate activity: 25 μg/mL < EC50 < 50 μg/mL); degree of leishmanicidal activity, axenic amastigotes [2]: high (high leishmanicidal activity: EC50 < 25 μg/mL)
C[N+](C)(CI)CCO [Compound 4b, N-Iodomethyl-N,N-dimethyl-N-(2-hydroxyet-1-yl)ammonium iodide] | 17.8 ± 0.2 | 23.9 ± 1 | 19.6 ± 1.8 | 
C[N+](C)(C)CCO.[I-] [Compound 4c, (2-Hydroxyethyl)trimethylammonium iodide, reference compound] | 372 ± 43.1 |  |  | EC50 [1]: 150 ± 17.9 µg/mL; degree of leishmanicidal activity, intracellular amastigotes [1]: almost no activity; EC50 ([2]; read-out: Axenic Amastigotes EC50, L. (V) panamensis axenic amastigotes, MTT, 72 h): < 50 µg/mL; Axenic Amastigotes EC50 [2, 5]: 47.2 ± 7.1 µg/mL; degree of leishmanicidal activity, axenic amastigotes [2]: moderate activity
meglumine antimoniate [MA, reference compound] |  |  |  | Cytotoxicity LC50 (U-937 cells; MTT, 72 h, mean ± standard deviation): 358.2 ± 1.7 µg/mL; degree of cytotoxicity (U-937 cells; authors' own scale by LC50): potentially non-cytotoxic; Intracellular Amastigotes EC50 [1, 3]: 6.33 ± 0.86 µg/mL; Axenic Amastigotes EC50 [2, 5]: 312.1 ± 18.6 µg/mL; degree of leishmanicidal activity, axenic amastigotes [2]: not active
